Drawing on patent US5342843A, “Thienoimidazoppyridone derivatives” (Kyowa Hakko Kogyo Co., Ltd., priority 1991, dated 1994), this text covers IC50 and inhibition for 20 molecules.

As usually defined, the IC50 is the point on the concentration scale where inhibition reaches its midpoint. For orientation: inhibition means the drop in the measured response relative to a control, in per cent.

One assay has as its system guinea pig trachea. The experiment in a line: Passive Schultz-Dale reaction (relaxation of ovalbumin-induced contraction of passively sensitized trachea). Set-up: species or system male Hartley guinea pigs. The following applies: Cavia porcellus; concentration causing 50% relaxation; ovalbumin 1 μg/ml, cumulative addition; isolated trachea, 37° C. The protocol: Rabbit anti-OA serum prepared in advance by the method of Kohda, et al. [Folia Pharmacol. Japan, Vol. 66, p. 237 (1970)], was intraperitoneally administered to male Hartley guinea pigs weighing 350-500 g for passive sensitization, and 24 hours later tracheas of the animals were removed, and used for the following test. The tracheas were cut into zig-zag strips by the method of Emmerson and Mackay [J. Pharm. Pharmacol., Vol. 31, p.798 (1979)], were suspended in Krebs-Hensleit solution at 37° C. under aeration of a gas mixture of 95% oxygen and 5% carbon dioxide, and equilibrated for about 1 hour. The antigen, ovalbumin, was added to a bath (final concentration; 1 μg/ml). The contraction was recorded using an isotonic transducers (TD-112S; Nihon Koden Kogyo Co.) connected to a recorder (TYPE 3066; Yokogawa Hokushin Electric). Following the contraction curves reached a plateau, a test compound was cumulatively added in order to calculate the concentration causing 50% relaxation (IC50) which was determined from least-squares regression analysis.

For assay [1], the system named is plaque-forming cells (PFC). The experiment in a line: Inhibiting effect on plaque-forming cells (PFC). It is filed as cell-based, Balb/c strain male mice. The following applies: 120 h; concentration: 10^-5 M; mouse spleen cells, 5 days culture; read-out: PFC inhibition rate (%). The text has this: The method devised by Jerne, et al. [Science, Vol. 140, p.405 (1963)] was followed while referring to the method of Yamamoto, et al. [Drugs Exptl. Clin. Res., Vol. 8, p.5 (1982)]. That is, Balb/c strain male mice (7-week-old/SLC) were sensitized with 1×10^8 sheep erythrocytes (manufactured by Bio Test Research Institute), and the spleen was extirpated on the 6th or 7th day. The erythrocytes were removed using ACT solution [Tris (hydroxymethyl) aminomethane-NH4 Cl solution] from the spleen cells, and were washed with RPMI-1640 medium (manufactured by Nissui Seiyaku Co.) three times. Suspensions of the obtained cells (1×10^7) and the sheep erythrocytes (5×10^6) were suspended with RPMI-1640 medium containing the test compound, 2-mercaptoethanol (5×10^-5 M), 10% bovine fetal serum (manufactured by Gibco Co.), streptomycin and penicillin. The obtained cell suspension was distributed into a 24-well microculture plate, and cultured in a carbon dioxide gas incubator at 37° C. for 5 days.
After the completion of culturing, the cells were transferred to a plastic test tube. They are centrifuged at 2000 rpm and the supernatant was removed. Then, the cells were further suspended in 1 ml of RPMI-1640. The cell suspension was charged, together with the sheep erythrocytes and the guinea pig complements, into a Cunningham chamber (manufactured by Takahashi Giken Co.), by the method of Cunningham, et al. [Immunology, Vol. 14, p.599 (1968)]. The cells were incubated at 37° C. for 1-2 hours, and then a direct PFC count was determined.

As to `CCCCn1c(=O)c2[nH]cnc2c2sccc21` [Compound 1, 5-n-butylthieno[3,2-b]-3H-imidazo[4,5-d]pyridine-4(5H)-one], the IC50 with guinea pig trachea stood at 4.63 µM. Also, the inhibition at 10 µM in assay [1] was found to be 39.3%.

As to `CCCCn1c(=O)c2c(ncn2C)c2sccc21` [Compound 2, 5-n-butyl-3-methylthieno[3,2-b]-3H-imidazo[4,5-d]pyridine-4(5H)-one], the IC50 in the assay with guinea pig trachea stood at 12.2 µM. Further, the inhibition at 10 µM in assay [1] stood at 43.3%.

For the molecule `CCCCn1c(=O)c2c(ncn2Cc2ccccc2)c2sccc21` [Compound 3, 3-benzyl-5-n-butylthieno [3,2-b]-3H-imidazo [4,5-d]pyridine-4 (5H)-one], the inhibition at 10 µM in assay [1] came to 92.4%.

`CC(C)n1c(=O)c2[nH]cnc2c2sccc21` [Compound 6, 5-isopropylthieno [3,2-b]-3H-imidazo [4,5-d]pyridine-4 (5H)-one]: the IC50 with guinea pig trachea was 2.67 µM. The inhibition at 10 µM in assay [1] turned out to be 8.8%.

`CC(C)n1c(=O)c2c(ncn2C)c2sccc21` [Compound 7, 5-isopropyl-3-methylthieno[3,2-b]-3H-imidazo[4,5-d]pyridine-4(5H)-one]: the IC50 with guinea pig trachea stood at 3.53 µM. Moreover, the inhibition at 10 µM in assay [1] is 29.5%.

Consider `CC(C)n1c(=O)c2ncn(C)c2c2sccc21` [Compound 9, 5-isopropyl-1-methylthieno[3,2-b]-1H-imidazo[4,5-d]pyridine-4(5H)-one], for which the IC50 in the assay with guinea pig trachea amounted to 7.29 µM. Also, in assay [1], the inhibition at 10 µM amounted to 23.8%.

In the case of `CCCn1c(=O)c2[nH]cnc2c2sccc21` [Compound 11, 5-n-propylthieno [3,2-b]-3H-imidazo [4,5-d]pyridine-4(5H)-one], the IC50 with guinea pig trachea worked out at 0.922 µM.

For the molecule `CCCn1c(=O)c2c(ncn2C)c2sccc21` [Compound 12, 3-methyl-5-n-propylthieno [3,2-b]-3H-imidazo [4,5-d]pyridine-4(5H)-one], the IC50 in the assay with guinea pig trachea came out at 2.95 µM. Further, the inhibition at 10 µM in assay [1] came to 60.4%.

As for `CCCn1c(=O)c2c(ncn2Cc2ccccc2)c2sccc21` [Compound 13, 3-benzyl-5-n-propylthieno [3,2-b]-3H-imidazo [4,5-d]pyridine-4(5H)-one], in assay [1], the inhibition at 10 µM worked out at 68.3%.

Regarding `CCCn1c(=O)c2ncn(C)c2c2sccc21` [Compound 14, 1-methyl-5-n-propylthieno [3,2-b]-1H-imidazo [4,5-d]pyridine-4 (5H)-one], the IC50 with guinea pig trachea was 6.56 µM.

`CCn1c(=O)c2[nH]cnc2c2sccc21` [Compound 16, 5-ethylthieno[3,2-b]-3H-imidazo[4,5-d]pyridine-4(5H)one]: the IC50 in the assay on guinea pig trachea turned out to be 0.657 µM. Moreover, the inhibition at 10 µM in assay [1] is 83.1%.

Regarding `CCn1c(=O)c2c(ncn2C)c2sccc21` [Compound 17, 5-ethyl-3-methylthieno[3,2-b]-3H-imidazo[4,5-d]pyridine-4 (5H)-one], the IC50 with guinea pig trachea turned out to be 10.5 µM. In addition, in assay [1], the inhibition at 10 µM was found to be 47%.

`CCn1c(=O)c2ncn(C)c2c2sccc21` [Compound 19, 5-ethyl-1-methylthieno [3,2-b]-1H-imidazo [4,5-d]pyridine-4 (5H)-one]: in the assay with guinea pig trachea, the IC50 was found to be 9.98 µM.

As for `CCn1c(=O)c2ncn(Cc3ccccc3)c2c2sccc21` [Compound 20, 1-benzyl-5-ethylthieno [3,2-b]-1H-imidazo [4,5-d]pyridine-4 (5H)-one], the IC50 in the assay on guinea pig trachea amounted to 3.41 µM.

As to `CCCCn1c(=O)c2[nH]cnc2c2ccsc21` [Compound 31, 5-n-butylthieno [2,3-b]-3H-imidazo [4,5-d]pyridine-4 (5H) one], the IC50 in the assay on guinea pig trachea was found to be 0.416 µM. Besides, the inhibition at 10 µM in assay [1] was -10.9%.

As to `CCCCn1c(=O)c2c(ncn2C)c2ccsc21` [Compound 32, 5-n-butyl-3-methylthieno [2,3-b]-3H-imidazo [4,5-d]pyridine-4 (5H)-one], the IC50 with guinea pig trachea was 0.854 µM. For the same molecule, in assay [1], the inhibition at 10 µM came out at 16.5%.

Turning to `CCCCn1c(=O)c2c(ncn2Cc2ccccc2)c2ccsc21` [Compound 33, 3-benzyl-5-n-butylthieno [2,3-b]-3H-imidazo [4,5-d]pyridine-4 (5H)-one], the IC50 in the assay on guinea pig trachea was determined as 36.9 µM. In addition, the inhibition at 10 µM in assay [1] was 94.8%.

For `CCCCn1c(=O)c2ncn(C)c2c2ccsc21` [Compound 34, 5-n-butyl-1-methylthieno [2,3-b]-1H-imidazo [4,5-d]pyridine-4 (5H)-one], the IC50 in the assay with guinea pig trachea was found to be 8.98 µM. The inhibition at 10 µM in assay [1] was -16.5%.

Consider `CCCCn1c(=O)c2ncn(Cc3ccccc3)c2c2ccsc21` [Compound 35, 1-benzyl-5-n-butylthieno [2,3-b]-1H-imidazo [4,5-d]pyridine-4 (5H)-one], for which the half-maximal inhibitory concentration (IC50) with guinea pig trachea worked out at 6.06 µM. In addition, in assay [1], the inhibition at 10 µM is -3.8%.

Regarding `CCCn1c(=O)c2ncn(Cc3ccccc3)c2c2ccsc21` [Compound 39, 1-benzyl-5-n-propylthieno [2,3-b]-1H-imidazo [4,5-d]pyridine-4 (5H)-one], in the assay on guinea pig trachea, the IC50 came out at 2.39 µM.
